Holding throughout (format): cell-based, human
Experiment [1] concerns IL-10-induced JAK1/TYK2 signal pathway. In words: IL-10-induced JAK1/TYK2 signal pathway STAT3-Luc reporter gene assay in U2OS cells. Particulars: U2OS cells, STAT3-Luc reporter, IL-10 10 ng/mL, read-out: Half inhibition dose (IC50) on IL-10-induced JAK1/TYK2 signal pathway. An outline of the steps:
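Luciferase read-out (560 nm) corrected by GFP signal (Ex485/Em520) gives IL-10 pathway activity, and IC50 is derived from inhibition rates. Cells were U2OS transfected with IL-10R1 plus STAT3-Luc reporter, pretreated 6 h with 0.1–300 nM compound, then stimulated 24 h with IL-10 at 10 ng/mL.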

Experiment [2] deals with IL-2-induced JAK1/JAK3 signal pathway. Put plainly: IL-2-induced proliferation of KHYG-1 cells (JAK1/JAK3 signal). As to conditions: Homo sapiens; KHYG-1 cell proliferation, IL-2 10 ng/mL, 72 hours; read-out: Inhibition activity IC50 on IL-2-induced JAK1/JAK3 signal pathway. The procedure, abridged:
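Controls were wells lacking both compound and cytokine (0%) and compound-free IL-2 wells (100%). C50 was calculated from inhibition rates across doses.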

For experiment [3], the system named is EPO-induced JAK2 signal pathway. In words: EPO-induced proliferation of UT-7 cells (JAK2 signal). As to conditions: Homo sapiens, UT7; UT-7 cell proliferation, EPO 10 ng/mL, 72 hours; read-out: Inhibition activity IC50 on EPO-induced JAK2 signal pathway. The procedure, abridged:
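[…] was derived from inhibition rates across doses, scaled between wells lacking compound and cytokine (0) and EPO without compound (100), using alamarBlue fluorescence at Ex530/Em590. Compound (final 0-10000 nM) and 10 ng/mL EPO were given to UT-7 cells at 15000 per well for 72 h at 37° C.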

Results on 23 molecules are retold here after patent publication US20240101548A1, “HYDROXAMATE COMPOUND, PREPARATION METHOD THEREFOR AND APPLICATION THEREOF” (SHENZHEN CHIPSCREEN BIOSCIENCES CO., LTD., priority 2020, published 2024).

pIC50: −log10 of the molar value. Where two headings read alike, the source gives them in different places.

Take `CCONC(=O)c1cnc(Nc2ccc(F)cn2)cc1Nc1ccc(Cl)cc1N(C)S(C)(=O)=O` [Example 128, 4-((4-chloro-2-(N-methylmethanesulfonamido)phenyl)amino)-N-ethoxy-6-((5-fluoropyridin-2-yl)amino)nicotinamide]: the pIC50 was 9.16 in experiment [1] (Homo sapiens, U2OS); under 5.00 in experiment [2]; under 5.00 in experiment [3].
Turning to `CCONC(=O)c1cnc(Nc2cccc(F)n2)cc1Nc1ccc(Cl)cc1N(C)S(C)(=O)=O` [Example 129, 4-((4-chloro-2-(N-methylmethanesulfonamido)phenyl)amino)-N-ethoxy-6-((6-fluoropyridin-2-yl)amino)nicotinamide], the pIC50 in experiment [1] (Homo sapiens, U2OS) is 8.97; in experiment [2], under 5.00; in experiment [3] it was under 5.00.
Consider `CCONC(=O)c1cnc(Nc2ccc(F)cn2)cc1Nc1ccc(N2CCOCC2)cc1N(C)S(C)(=O)=O` [Example 130], for which the pIC50 is 9.10 in experiment [1] (Homo sapiens, U2OS); under 5.00 in experiment [2]; under 5.00 in experiment [3].
Consider `CCONC(=O)c1cnc(Nc2cc(C)nc(C)n2)cc1Nc1ccc(OC)cc1N(C)S(C)(=O)=O` [Example 131, 6-((2,6-dimethylpyrimidin-4-yl)amino)-N-ethoxy-4-((4-methoxy-2-(N-methylmethanesulfonamido)phenyl)amino)nicotinamide], for which the pIC50 is 9.24 in experiment [1] (Homo sapiens, U2OS); under 5.00 in experiment [2]; under 5.00 in experiment [3].
For `CCONC(=O)c1cnc(Nc2cc(C)nc(C)n2)cc1Nc1ccc(N2CCCCC2)cc1N(C)S(C)(=O)=O` [Example 132, 6-((2,6-dimethylpyrimidin-4-yl)amino)-N-ethoxy-4-((2-(N-methylmethanesulfonamido)-4-(piperidin-1-yl)phenyl)amino)nicotinamide], the pIC50 was 9.01 in experiment [1] (Homo sapiens, U2OS); under 5.00 in experiment [2]; under 5.00 in experiment [3].
With `CCONC(=O)c1cnc(Nc2cc(C)nc(C)n2)cc1Nc1ccc(C)cc1N(C)S(C)(=O)=O` [Example 133, 6-((2,6-dimethylpyrimidin-4-yl)amino)-N-ethoxy-4-((4-methyl-2-(N-methylmethanesulfonamido)phenyl)amino)nicotinamide], the pIC50 in experiment [1] (Homo sapiens, U2OS) was 9.21; in experiment [2], under 5.00; in experiment [3], under 5.00.
With `CCONC(=O)c1cnc(Nc2cc(C)nc(C)n2)cc1Nc1ccc(N2CCOCC2)cc1N(C)S(C)(=O)=O` [Example 134, 6-((2,6-dimethylpyrimidin-4-yl)amino)-N-ethoxy-4-((2-(N-methylmethanesulfonamido)-4-morpholinophenyl)amino)nicotinamide], the pIC50 in experiment [1] (Homo sapiens, U2OS) is 8.56; in experiment [2], under 5.00; in experiment [3] it was under 5.00.
Consider `CCONC(=O)c1cnc(Nc2cnccn2)cc1Nc1ccc(N2CCOCC2)cc1N(C)S(C)(=O)=O` [Example 136, N-ethoxy-4-((2-(N-methylmethanesulfonamido)-4-morpholinophenyl)amino)-6-(pyrazin-2-ylamino)nicotinamide], for which the pIC50 in experiment [1] (Homo sapiens, U2OS) is 8.60; in experiment [2], under 5.00; in experiment [3], under 5.00.
For `CCONC(=O)c1cnc(Nc2ccccn2)cc1Nc1ccc(C2CC2)cc1N(C)S(C)(=O)=O` [Example 138, 4-((4-cyclopropyl-2-(N-methylmethanesulfonamido)phenyl)amino)-N-ethoxy-6-(pyridin-2-ylamino)nicotinamide], the pIC50 in experiment [1] (Homo sapiens, U2OS) is 9.22; in experiment [2], under 5.00; in experiment [3], under 5.00.
For `CCONC(=O)c1cnc(NC(=O)C2CC2)cc1Nc1ccc(C2CC2)cc1N(C)S(C)(=O)=O` [Example 139, 6-(cyclopropylcarboxamido)-4-((4-cyclopropyl-2-(N-methylmethanesulfonamido)phenyl)amino)-N-ethoxy nicotinamide], the pIC50 in experiment [1] (Homo sapiens, U2OS) was 8.85; in experiment [2], under 5.00; in experiment [3], under 5.00.
For the molecule `C#Cc1ccc(Nc2cc(Nc3ccc(OC)cn3)ncc2C(=O)NOCC)c(N(C)S(C)(=O)=O)c1` [Example 141, N-ethoxy-4-((4-ethynyl-2-(N-methylmethanesulfonamido)phenyl)amino)-6-(5-methoxypyridin-2-ylamino)nicotinamide], the pIC50 is 9.31 in experiment [1] (Homo sapiens, U2OS); under 5.00 in experiment [2]; under 5.00 in experiment [3].
With `C#Cc1ccc(Nc2cc(Nc3ccc(C#N)cn3)ncc2C(=O)NOCC)c(N(C)S(C)(=O)=O)c1` [Example 142, 6-(5-cyanopyridin-2-ylamino)-N-ethoxy-4-((4-ethynyl-2-(N-methylmethanesulfonamido)phenyl)amino)nicotinamide], the pIC50 in experiment [1] (Homo sapiens, U2OS) was 9.39; in experiment [2], under 5.00; in experiment [3], under 5.00.
For the molecule `C#Cc1ccc(Nc2cc(Nc3cccc(F)n3)ncc2C(=O)NOCC)c(N(C)S(C)(=O)=O)c1` [Example 143, N-ethoxy-4-((4-ethynyl-2-(N-methylmethanesulfonamido)phenyl)amino)-6-(6-fluoropyridin-2-ylamino)nicotinamide], the pIC50 in experiment [1] (Homo sapiens, U2OS) was 9.30; in experiment [2] it was under 5.00; in experiment [3], under 5.00.
As to `C#Cc1ccc(Nc2cc(Nc3ccc(F)cn3)ncc2C(=O)NOCC)c(N(C)S(C)(=O)=O)c1` [Example 144, N-ethoxy-4-((4-ethynyl-2-(N-methylmethanesulfonamido)phenyl)amino)-6-(5-fluoropyridin-2-ylamino)nicotinamide], the pIC50 is 9.01 in experiment [1] (Homo sapiens, U2OS); under 5.00 in experiment [2]; under 5.00 in experiment [3].
As to `CCONC(=O)c1cnc(Nc2cnccn2)cc1Nc1ccc(C2CC2)cc1N(C)S(C)(=O)=O` [Example 145, 4-((4-cyclopropyl-2-(N-methylmethanesulfonamido)phenyl)amino)-N-ethoxy-6-(pyrazin-2-ylamino)nicotinamide], the pIC50 is 9.52 in experiment [1] (Homo sapiens, U2OS); under 5.00 in experiment [2]; under 5.00 in experiment [3].
Turning to `CCONC(=O)c1cnc(Nc2cccc(C)n2)cc1Nc1ccc(C2CC2)cc1N(C)S(C)(=O)=O` [Example 146, 4-((4-cyclopropyl-2-(N-methylmethanesulfonamido)phenyl)amino)-N-ethoxy-6-((6-methylpyridin-2-yl)amino)nicotinamide], the figures for the pIC50 in experiment [1], in experiment [2] and in experiment [3] were 8.60, under 5.00 and under 5.00, respectively.
On to `CCONC(=O)c1cnc(Nc2cccnn2)cc1Nc1ccc(Cl)cc1N(C)S(C)(=O)=O` [Example 151, 4-((4-chloro-2-(N-methylmethanesulfonamido)phenyl)amino)-N-ethoxy-6-(pyridazin-3-ylamino)nicotinamide], for which the pIC50 in experiment [1] (Homo sapiens, U2OS) is 8.68; in experiment [2], under 5.00; in experiment [3], under 5.00.
In the case of `CCONC(=O)c1cnc(Nc2cccnn2)cc1Nc1ccc(C2CC2)cc1N(C)S(C)(=O)=O` [Example 153, 4-((4-cyclopropyl-2-(N-methylmethanesulfonamido)phenyl)amino)-N-ethoxy-6-(pyridazin-3-ylamino)nicotinamide], the pIC50 is 8.82 in experiment [1] (Homo sapiens, U2OS); under 5.00 in experiment [2]; under 5.00 in experiment [3].
`C#Cc1ccc(Nc2cc(Nc3ccc(C4CC4)cn3)ncc2C(=O)NOCC)c(N(C)S(C)(=O)=O)c1` [Example 154, 6-((5-cyclopropylpyridin-2-yl)amino)-N-ethoxy-4-((4-ethynyl-2-(N-methylmethanesulfonamido)phenyl)amino)nicotinamide]: the pIC50 is 8.82 in experiment [1] (Homo sapiens, U2OS); under 5.00 in experiment [2]; under 5.00 in experiment [3].
As for `CCONC(=O)c1cnc(Nc2ccc(C3CC3)cn2)cc1Nc1ccc(OC)cc1N(C)S(C)(=O)=O` [Example 155, 6-((5-cyclopropylpyridin-2-yl)amino)-N-ethoxy-4-((4-methoxy-2-(N-methylmethanesulfonamido)phenyl)amino)nicotinamide], the pIC50 in experiment [1] (Homo sapiens, U2OS) was 8.75; in experiment [2] it was under 5.00; in experiment [3] it was under 5.00.
For the molecule `CCONC(=O)c1cnc(Nc2ncc(C)s2)cc1Nc1ccc(C2CC2)cc1N(C)S(C)(=O)=O` [Example 156, 4-((4-cyclopropyl-2-(N-methylmethanesulfonamido)phenyl)amino)-N-ethoxy-6-((5-methylthiazol-2-yl)amino)nicotinamide], the pIC50 is 9.00 in experiment [1] (Homo sapiens, U2OS); under 5.00 in experiment [2]; under 5.00 in experiment [3].
For `CCONC(=O)c1cnc(Nc2nc(C)cs2)cc1Nc1ccc(C2CC2)cc1N(C)S(C)(=O)=O` [Example 157, 4-((4-cyclopropyl-2-(N-methylmethanesulfonamido)phenyl)amino)-N-ethoxy-6-((4-methylthiazol-2-yl)amino)nicotinamide], the pIC50 was 8.83 in experiment [1] (Homo sapiens, U2OS); under 5.00 in experiment [2]; under 5.00 in experiment [3].
In the case of `CCONC(=O)c1cnc(Nc2ccc(C)nn2)cc1Nc1ccc(C2CC2)cc1N(C)S(C)(=O)=O` [Example 159, 4-((4-cyclopropyl-2-(N-methylmethanesulfonamido)phenyl)amino)-N-ethoxy-6-((6-methylpyridazin-3-yl)amino)nicotinamide], the pIC50 in experiment [1] (Homo sapiens, U2OS) was 9.04; in experiment [2], under 5.00; in experiment [3], under 5.00.
